Experimental data taken from US20240374737A1, “ERK5 DEGRADERS AND USES THEREOF” (DANA-FARBER CANCER INSTITUTE, INC., priority 2021, published 2024).

How the values were obtained:
ERK5 [1] = target: T1, ERK5 (Homo sapiens, UniProt Q13164); experiment: Multiplexed tandem mass tag quantitative mass spectrometry proteomics in Molt4 cells; assay type: cell-based; conditions: 100 nM, 5 hours, vs DMSO vehicle
T1 construct: endogenous in cells; host or cells: Molt4 cells
Description: FIG. 3 is a scatterplot that depicts the change in relative protein abundance of compound 2 (100 nM, 5 h)-treated MOLT4 cells compared with DMSO vehicle control-treated cells. Protein abundance measurements were made using tandem mass tag quantitative mass spectrometry. The log 2fold change (log 2FC) is shown on the y axis and negative log 10p value (−log 10p value) on the x axis.

ERK5 [2] = target: T1, ERK5; experiment: ERK5 degradation immunoblot in Molt4 cells; assay type: cell-based; conditions: for ERK5 degradation (immunoblot): 0.1 μM or 1 μM; for ERK5 degradation (immunoblot) / concentration at which ERK5 degradation is seen (as low as / up to): 5 hours
Description: Molt4 cells were maintained in RPMI 1640 supplemented with 10% FBS and 100 U/mL Penicillin-Streptomycin at 37° C. in the presence of 5% CO2. […] The cells were then lysed with RIPA buffer containing phosphatase/protease inhibitor, and cell extracts were precleared by centrifugation at 21000×g for 5 minutes at 4° C. The Pierce BCA protein assay kit was used to assess protein lysate concentration and normalized using SDS sample buffer. Lysates were resolved on 4-12% Tris-Base gels and transferred to an Immuno-Blot PVDF membrane. The membrane was blocked for 1 hour, then incubated with primary antibodies against ERK5 (Cell Signaling) and j-Actin (Cell Signaling). The next day, membranes were washed with TBS-T, then incubated at room temperature for 1 hour with IRDye@800-labeled goat anti-rabbit IgG and IRDye@800-labeled goat anti-mouse IgG (LI-COR) secondary antibodies. The membranes were detected on Odyssey® CLx system.

T1 sequence (Q13164 whole entry): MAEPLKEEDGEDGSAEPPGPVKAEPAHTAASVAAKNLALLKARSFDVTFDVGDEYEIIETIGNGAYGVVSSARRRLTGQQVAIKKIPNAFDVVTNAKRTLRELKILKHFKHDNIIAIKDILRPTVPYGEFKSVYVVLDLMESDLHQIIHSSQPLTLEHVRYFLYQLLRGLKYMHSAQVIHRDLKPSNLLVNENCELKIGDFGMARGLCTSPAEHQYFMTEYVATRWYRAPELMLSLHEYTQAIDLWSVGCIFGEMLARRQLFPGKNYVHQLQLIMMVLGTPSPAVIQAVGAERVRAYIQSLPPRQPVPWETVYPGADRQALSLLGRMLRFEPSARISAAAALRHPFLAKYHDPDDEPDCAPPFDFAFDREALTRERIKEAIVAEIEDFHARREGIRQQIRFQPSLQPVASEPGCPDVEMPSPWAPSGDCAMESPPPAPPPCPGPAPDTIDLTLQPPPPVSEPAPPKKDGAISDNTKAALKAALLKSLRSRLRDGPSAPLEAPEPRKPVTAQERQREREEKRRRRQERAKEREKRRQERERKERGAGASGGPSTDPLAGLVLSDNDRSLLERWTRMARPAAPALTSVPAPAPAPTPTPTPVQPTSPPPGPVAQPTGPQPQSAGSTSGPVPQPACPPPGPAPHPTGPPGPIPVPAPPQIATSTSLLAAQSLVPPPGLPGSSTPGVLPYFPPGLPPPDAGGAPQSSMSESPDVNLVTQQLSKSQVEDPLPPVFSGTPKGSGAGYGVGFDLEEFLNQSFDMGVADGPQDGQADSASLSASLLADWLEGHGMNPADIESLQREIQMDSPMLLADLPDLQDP

Structure (SMILES) | change in relative protein abundance (proteome-wide selectivity) (ERK5 [1]) | time of treatment within which ERK5 degradation is induced (ERK5 [2]; 0.1 μM and 1 μM, time course 1 h, 2 h, 3 h, 4 h) [h] | ERK5 degradation (immunoblot) (ERK5 [2]) | VHL dependence of ERK5 degradation (ERK5 [2]; 5 h, compared with negative control) | concentration at which ERK5 degradation is seen (as low as / up to) (ERK5 [2]) [µM] | concentration at which ERK5 degradation is induced (as low as) (ERK5 [2]; 5 hours of treatment) [nM]
Cc1ncsc1-c1ccc([C@H](C)NC(=O)[C@@H]2C[C@@H](O)CN2C(=O)[C@@H](NC(=O)CCCCCN2CCN(c3ccc4c(C5CCN(C(=O)c6ccc(OC(F)(F)F)cc6N)CC5)ncnc4c3)CC2)C(C)(C)C)cc1 [compound 2, (2S,4R)-1-((S)-2-(6-(4-(4-(1-(2-amino-4-(trifluoromethoxy)benzoyl)piperidin-4-yl)quinazolin-7-yl)piperazin-1-yl)hexanamido)-3,3-dimethylbutanoyl)-4-hydroxy-N—((S)-1-(4-(4-methylthiazol-5-yl)phenyl)ethyl)pyrrolidine-2-carboxamide] | significant downregulation of only ERK5 protein levels | ≤ 2 | potently degraded ERK5 | degraded ERK5 in a VHL-dependent manner | ≤ 0.05 | ≤ 50
Cc1ncsc1-c1ccc([C@H](C)NC(=O)[C@H]2C[C@H](O)CN2C(=O)[C@@H](NC(=O)CCCCCN2CCN(c3ccc4c(C5CCN(C(=O)c6ccc(OC(F)(F)F)cc6N)CC5)ncnc4c3)CC2)C(C)(C)C)cc1 [compound 13, (2R,4S)-1-((S)-2-(6-(4-(4-(1-(2-amino-4-(trifluoromethoxy)benzoyl)piperidin-4-yl)quinazolin-7-yl)piperazin-1-yl)hexanamido)-3,3-dimethylbutanoyl)-4-hydroxy-N—((S)-1-(4-(4-methylthiazol-5-yl)phenyl)ethyl)pyrrolidine-2-carboxamide, reference compound] |  |  | did not recruit the VHL E3 ligase or induce ERK5 degradation |  | > 5 | 
